Reference: US20030162732A1, “Combination of aminosugars and cysteine or cysteine derivatives” (Astion Development A/S, priority 2001, published 2003)

Tests used:
[1] = test system: carrageenin-induced paw oedema; experiment: carrageenin-induced paw oedema test in the rat; assay type: in vivo; conditions: day 0
From the text: The objective of this study is to assess the effect of complexes or compositions of the invention in the carrageenin-induced paw oedema test in the rat, a commonly employed method for screening and evaluation of antiinflammatory drugs. Carrageenin, the phlogistic agent of choice for testing antiinflammatory drugs, is a mucopolysaccharide derived from Irish sea moss, Chondrus. Ibuprofen is used as a positive control.
The test article is the complex of the invention prepared according to example 105 (Compound 105 in the following). Compound 105 and Ibuprofen are obtained from Astion A/S, Denmark.
The test article is dissolved in milli-Q water. 0.9% NaCl solution is used as vehicle.
The study is performed in male SPF Sprague Dawley rats of the stock Mol:SPRD from M & B A/S, Tornbjergvej 40, DK-4623 Lille Skensved, Denmark. At start of the acclimatisation period the rats are in the weight range of 80-100 g.
All doses of Compound 105 are administered intraperitoneally in volumes of 20 ml per kg body weight, once daily on day −2 and −1 to groups 2,3 and 4 only and on day 0 to groups 2-6, 0-5 minutes before injection of carrageenin into the foot on day 0. Ibuprofen and vehicle are administered orally by gavage in volumes of 20 ml/kg body weight on day 0, 0-5 minutes before injection of the carrageenin into the foot.
Carrageenin (from Sigma) is prepared as a 1% suspension in sterile 0.9% NaCl-solution. A volume of 0.1 ml is injected through a 25-gauge needle into the plantar tissue of the right hind paw of the rats within 5 minutes after treatment with the test articles.
Immediately before the dosing and carrageenin injection and three and five hours later the foot volume is measured using a plethysmometer LE 7500 from Letica Scientific Instruments, Spain.

[2] = test system: tendonitis of the arm; osteoarthritis of the hips and knees; knee injury involving cartilage damage; experiment: small preliminary clinical investigation, three persons, oral aqueous solution of compound 105; assay type: in vivo, human; conditions: person, normal doses, patient history
Protocol: In a small preliminary clinical investigation three persons administered a pharmaceutical composition according to the invention. The composition was an aqueous solution (100 mg/ml) of compound 105, which is the complex of the invention prepared according to example 105.
One patient was […] and had suffered from tendonitis of the arm for eight months. The symptoms were chronic muscle pain and some degree of immobility of the arm.
The composition of the invention was administered orally corresponding to 3000 mg compound 105 twice a day. […] After a further week of treatment the treatment was discontinued.
Another patient was […] and had suffered from osteoarthritis of the hips and knees for ten years. For some periods the patient had been treated with celecoxib, paracetamol and/or codein to control the pain. The main symptoms were pain and immobility of the joints. The composition of the invention was administered orally corresponding to 3000 mg compound 105 twice a day.
The symptoms were pain and immobility of the knee joint. The composition of the invention was administered orally corresponding to 3000 mg compound 105 twice a day. […] During the next two days the symptoms started reappearing.

## CC(C)Cc1ccc(C(C)C(=O)O)cc1 (centres unmarked) [Ibuprofen]
[1]; after 5 hours, 50 mg/kg orally by gavage
  inhibition of the paw oedema: 77%
[1]; after 5 hours, 150 mg/kg orally by gavage
  inhibition of the paw oedema: 97%
[1]; after three hours, 50 mg/kg orally by gavage
  inhibition of the paw oedema: 37%
[1]; after three hours, 150 mg/kg orally by gavage
  inhibition of the paw oedema: 57%
[2]
  symptomatic effect of earlier treatment: limited symptomatic effect
